From paper PMC5864050 (PLoS ONE, 2018)
Where a name gives a salt, the structure may show the parent alone. Read-outs that look alike come from different tables or passages of the source.

What was measured:
[1] = tested on: MERS-CoV; assay type: cell-based, MERS-CoV Jordan strain (Hu/Jordan-N3/2012)
[2] = tested on: Huh 7 cells; settings: cited from earlier work
[3] = tested on: Vero E6 cells; settings: cited from earlier work
[4] = tested on: MERS-CoV; assay: microbe, parasite or virus in culture; assay type: cell-based, MERS-CoV Jordan strain (Hu/Jordan-N3/2012); settings: for EC50: Middle East respiratory syndrome-related coronavirus
[5] = tested on: MERS-CoV; settings: cited from earlier work
[6] = tested on: MERS-CoV; settings: read-out: EC50, MERS-CoV infection; cited from earlier work
[7] = in vitro; settings: human
[8] = tested on: MERS-CoV; assay type: cell-based, MERS-CoV Jordan strain (Hu/Jordan-N3/2012); remark: listed apart in the source
[9] = tested on: immature MDDCs
[10] = tested on: MERS-CoV; assay type: cell-based, MERS-CoV Jordan strain (Hu/Jordan-N3/2012); remark: listed apart in the source
[11] = tested on: MERS-CoV and SARS-CoV; settings: cited from earlier work
[12] = tested on: SARS-CoV; settings: cited from earlier work

Row | Compound | virus yield reduction (TCID50) [1] | CC50 [2] [µM] | cytotoxicity (in words) [3] | selectivity index (SI = CC50÷EC50) [4] | EC50 ([4]; read-out: EC50, antiviral activity against MERS-CoV) [µM] | EC50 [5] [µM] | EC50 [6] [µM] | CC50 [7] [µM] | activity against MERS-CoV infection by virus yield reduction (in words) [8] | virus yield reduction (TCID50), drop [8] [log10] | cytotoxicity (in words) [9] | virus yield reduction (TCID50) [10] | toxicity (in words) [11] | EC50 [12] [µM] | EC50, antiviral activity against MERS-CoV [4] | EC50 [4] [µM]
1 | CN(C)CCCN1c2ccccc2Sc2ccc(Cl)cc21 [CPZ, Chlorpromazine hydrochloride] | ~2 log10 | 21.3 | low cytotoxicity | 1.9 | 13.6 | 9.5 | 4.9 | 25.6 | active | 3.1 | high cytotoxicity | ~2 log10 |  |  |  | 
2 | CCN(CC)CCCC(C)Nc1ccnc2cc(Cl)ccc12 (stereo not drawn) [CQ, chloroquine diphosphate salt] | no virus yield reduction |  |  |  |  | 6.3 |  |  | not active |  |  | no virus yield reduction | low toxicity |  |  | 
3 | CN(C)CCOc1ccc(/C(=C(/CCCl)c2ccccc2)c2ccccc2)cc1 [TOMF, Toremifene citrate] | 1–1.5 log10 |  |  |  |  |  |  | 22.5 | not active |  |  | 1–1.5 log10 |  | 12 | too low to determine an EC50 | 38
